Assay results reported in patent US6846664B2, “Process for the preparation of protease inhibitor using novel alkalothermophilic bacillus sp” (priority 2000, dated 2005).
Ends that are not written are not given here.

Assays:
pepsin = pepsin (Homo sapiens, UniProt P0DJD8); assay: Assay of pepsin inhibition (casein substrate, pH 2.0, OD 280 nm); assay type: biochemical; settings: purified RP-HPLC compound
Source text: In a feature of the invention, the pepsin inhibitor was selectively purified by removing the high molecular weight compounds from the culture broth by treating it with activated charcoal. The charcoal treated broth was filtered through ultrafiltration membrane and concentrated by lyophilization. The concentrated inhibitor sample was loaded onto a reverse phase-high performance liquid chromatography column using a linear gradient of acetonitrile and triflouroacetate, and the peaks were checked for the inhibitor activity. […] This compound absorbs strongly at 210 nm. The compound was collected and checked as a single purified peptide after loading onto the HPLC column. One unit of inhibitor is defined as the amount of inhibitor which inhibits the protease activity expressed in terms of decrease in optical density of 0.001 per minute.
The protease pepsin was incubated in KC1-HC1 buffer, 0.02 M, pH-2.0, containing the inhibitor in various molar ratios at 37° C. for 30 min. After incubation the residual activity was determined and compared with the controls incubated without the inhibitor.
For example—To 0.05 ml of 100 mg/ml of aqueous solution of pepsin, 0.1 ml of the inhibitor solution was added. […] Precipitated excess casein was removed by filtration after incubation for one hour and the optical density was measured at 280 nm. […]

Alternaria alternata = assay: Antifungal activity assay (mycelial growth / spore germination); assay type: cell-based
Source text: (§1) The fungal strains Trichoderma reesei (deposited at The National Collection for Industrial Micro-organisms, Pune India and bearing accession numbers NCIM 992, NCIM 1052- and NCIM 1186), Fusarium oxysporum (bearing accession numbers NCIM 1008, 1043, 1072), Aspergillus flavus (bearing accession numbers NCIM 535, 536, 538, 542), Aspergillus oryzae (bearing accession numbers NCIM 637, 643, 649, 1032), Fusarium moniliforme (bearing accession numbers NCIM 1099, 1100), Alternaria alternata (bearing accession numbers NCIM 887), Claviceps purpurea (bearing accession numbers NCIM 1046), Curvularia fallax (bearing accession numbers NCIM 714), Curvularia lunata (NCIM 716), Curvularia cymbopogonis (bearing accession numbers NCIM 695) and Penicillium fellatanum (bearing accession numbers NCIM 1227) were grown on potato dextrose agar slants for 7-8 days. The said fungal strains have characteristics similar to the strains deposited at American Type Culture Collection, USA and bearing accession number as under: • Trichoderma reesei NCIM 992-ATCC No.13631 • Trichoderma reesei NCIM 1052-ATCC No.24449 • Trichoderma reesei NCIM 1186-ATCC No.26921 Fungal mycelium from the freshly grown culture was inoculated at the centre of petri plates containing potato dextrose agar medium and incubated till they form small circular growth. The time period for the vegetative growth of different fungus is different. On the periphery of the advancing fungal mycelia, four filter paper discs were impregnated at equal distances, with four different concentrations of the inhibitor sample. The plates were incubated at room temperature for 24-48 h to check the crescent zone of the retarded mycelial growth. For sporulating fungus the applicants also had checked the inhibition by spore suspension method. In this method the agar slants were incubated at room temperature till they sporulate. 4 ml of sterile distilled water was added aseptically to the agar slant and the spores were scrapped by using an inoculation loop. 1 ml of this suspension was mixed with 4 ml of malt extract, glucose, yeast extract, peptone media containing 0.4% agarose and poured onto the potato dextrose agar plate. This plate was incubated at room temperature for 4-10 h. Filter paper discs were impregnated and different concentrations of the inhibitor was added onto it. The plates were further incubated at room temperature for 24-48 h and the inhibition zone against the growth was checked. […] The advantages of the Invention are
(§2) Inhibition of growth of fungi by the inhibitor was studied using inhibition assays against mycelial growth and spore germination.
(§3) For example-In case of mycelial growth inhibition assay, fungal mycelium from freshly grown culture was inoculated at the center of potato dextrose agar plate and incubated at 28° C. for 48-72 hours. Sterile filter paper discs impregnated with different concentrations of the inhibitor were placed on the periphery of the growing fungal mycelium. The plates were incubated at 28° C. and the crescent zones of the retarded mycelial growth were observed. In case of inhibition assay against spore-germination, fungal spore suspension was made in malt extract, glucose, yeast extract and peptone (MGYP) liquid medium. To the spore suspension, various concentration of the inhibitor was added. The resulting suspension was incubated at 28° C. for 24 hours. The germination of the spores in presence and absence of the inhibitor were checked under inverted microscope. The minimum inhibitory does MID of several fungal strains are given below in the Table 2.

Aspergillus flavus = assay: as above; assay type: cell-based
Source text: as §1, §2, §3

Aspergillus oryzae = assay: as above; assay type: cell-based
Source text: as §1, §2, §3

Fusarium moniliforme = assay: as above; assay type: cell-based; settings: 28° C.
Source text: as §1, §2, §3

Fusarium oxysporum = assay: as above; assay type: cell-based
Source text: as §1, §2, §3

Trichoderma reesei = assay: as above; assay type: cell-based
Source text: as §1, §2, §3

Claviceps purpurea = assay: Mycelial growth inhibition, filter paper disc on potato dextrose agar; assay type: cell-based; settings: Claviceps purpurea NCIM 1046; room temperature 24-48 h
Source text: as §1, with “are […]” for “are”

Curvularia cymbopogonis = assay: as above; assay type: cell-based; settings: Curvularia cymbopogonis NCIM 695; room temperature 24-48 h
Source text: as §1, with “are […]” for “are”

Curvularia fallax = assay: as above; assay type: cell-based; settings: Curvularia fallax NCIM 714; room temperature 24-48 h
Source text: as §1, with “are […]” for “are”

Curvularia lunata = assay: as above; assay type: cell-based; settings: Curvularia lunata NCIM 716; room temperature 24-48 h
Source text: as §1, with “are […]” for “are”

Sequence of pepsin (P0DJD8 63-388): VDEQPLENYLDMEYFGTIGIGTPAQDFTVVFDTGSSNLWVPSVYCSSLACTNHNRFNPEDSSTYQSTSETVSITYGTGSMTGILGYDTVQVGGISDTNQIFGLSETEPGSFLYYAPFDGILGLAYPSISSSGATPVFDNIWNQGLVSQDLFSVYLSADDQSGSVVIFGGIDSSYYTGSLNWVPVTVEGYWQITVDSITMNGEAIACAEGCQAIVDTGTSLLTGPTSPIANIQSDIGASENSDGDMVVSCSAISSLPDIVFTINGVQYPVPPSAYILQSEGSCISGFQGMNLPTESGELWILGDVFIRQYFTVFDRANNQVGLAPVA

AGKKDDDDPPE [inhibitor]
inhibition against pepsin (RP-HPLC peak) (pepsin): showed the inhibition | inhibition of mycelial growth (Alternaria alternata; Altemaria alternata NCIM 887, room temperature 24-48 h): strongly inhibit | MID (minimum inhibitory dose) (Alternaria alternata; Alternaria alternata, 28° C.): 0.582 mg | inhibition of mycelial growth (Aspergillus flavus; Aspergillus flavus NCIM 535, 542, room temperature 24-48 h): strongly inhibit | MID (minimum inhibitory dose) (Aspergillus flavus; Aspergillus flavus, 28° C.): 0.817 mg | inhibition of mycelial growth (Aspergillus oryzae; Aspergillus oryzae NCIM 637, 643, room temperature 24-48 h): strongly inhibit | MID (minimum inhibitory dose) (Aspergillus oryzae; Aspergillus oryzae, 28° C.): 1.147 mg | MID (minimum inhibitory dose) (Fusarium moniliforme): 1.840 mg | inhibition of mycelial growth (Fusarium oxysporum; Fusarium oxysporum NCIM 1008, 1072, room temperature 24-48 h): strongly inhibit | MID (minimum inhibitory dose) (Fusarium oxysporum; Fusarium oxysporum, 28° C.): 2.300 mg | inhibition of mycelial growth (Trichoderma reesei; Trichoderma reesei NCIM 992, 1052, 1186, room temperature 24-48 h): strongly inhibit | MID (minimum inhibitory dose) (Trichoderma reesei; Trichoderma reesei, 28° C.): 0.292 mg | inhibition of mycelial growth (Claviceps purpurea): strongly inhibit | inhibition of mycelial growth (Curvularia cymbopogonis): strongly inhibit | inhibition of mycelial growth (Curvularia fallax): strongly inhibit | inhibition of mycelial growth (Curvularia lunata): strongly inhibit
